# Reference: PubChem BioAssay (NCI)
#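 Compound exposure: 48 hours, 5 concentrations, 96-well plates. GI50 is the concentration that inhibits growth by half. The concentration for full growth arrest is given as TGI.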
# Experiments:
# Experiment in all cases: NCI-60 cell line screen, 48 h
# BT-549 breast = test system: BT-549 breast
# HT29 colon = test system: HT29 colon
# UO-31 renal = test system: UO-31 renal
# HCT-116 colon = test system: HCT-116 colon
# SN12C renal = test system: SN12C renal
# HS 578T breast = test system: HS 578T breast
# CAKI-1 renal = test system: CAKI-1 renal
# MDA-MB-231 breast = test system: MDA-MB-231 breast
# ACHN renal = test system: ACHN renal
# SK-OV-3 ovarian = test system: SK-OV-3 ovarian
# SK-MEL-2 melanoma = test system: SK-MEL-2 melanoma
# A498 renal = test system: A498 renal
# SF-268 CNS = test system: SF-268 CNS
# SF-539 CNS = test system: SF-539 CNS
Structure (SMILES),TGI (BT-549 breast) [µM],TGI (HT29 colon) [µM],TGI (UO-31 renal) [µM],TGI (HCT-116 colon) [µM],TGI (SN12C renal) [µM],TGI (HS 578T breast) [µM],TGI (CAKI-1 renal) [µM],TGI (MDA-MB-231 breast) [µM],TGI (ACHN renal) [µM],TGI (SK-OV-3 ovarian) [µM],TGI (SK-MEL-2 melanoma) [µM],TGI (A498 renal) [µM],TGI (SF-268 CNS) [µM],TGI (SF-539 CNS) [µM],GI50 (HCT-116 colon) [µM],GI50 (CAKI-1 renal) [µM]
O=c1[nH]c2cc3[nH]c(=O)c(=O)[nH]c3cc2[nH]c1=O,> 100,> 100,> 100,> 100,> 100,> 100,> 100,> 100,> 100,> 100,> 100,> 100,> 100,> 100,–,–
O=S1(=O)c2ccccc2-c2nccc3ccnc1c23,35.4,23.2,59,> 100,94.1,> 100,85.9,95.7,85.3,> 100,> 100,84.4,> 100,> 100,–,–
N#CCN1CCN(CC#N)CCN(CC#N)CCN(CC#N)CC1,> 100,> 100,> 100,> 100,> 100,> 100,> 100,> 100,> 100,> 100,> 100,> 100,> 100,> 100,–,–
C=C1C(=O)OC2/C=C(\C)CC/C=C(\C)CC(OC(=O)/C(=C/CO)CO)[C@@H]12 (some centres undefined),26.5,20.6,23.9,10.7,27.2,63.4,14.1,28.2,19.3,> 100,34.6,34.6,45,26.3,–,–
COC(=O)/C(C#N)=C(/NCc1ccccc1)Nc1ccccc1,> 100,> 100,> 100,> 100,> 100,> 100,> 100,> 100,> 100,> 100,> 100,> 100,> 100,> 100,–,–
CC(C)=CC[C@H]1C[C@@]2(CC=C(C)C)C(=O)/C(=C(/O)c3ccccc3)C(=O)[C@](CC=C(C)C)(C2=O)C1(C)C,35,23.4,13.3,14.5,14.8,59.6,28.9,22.3,21.8,24.3,8.24,26.3,39.4,48,–,–
CN(C)c1cccc(/C=C(\C#N)c2ccccc2)c1,> 100,2.57,> 100,57.5,> 100,2.79,> 100,53.7,> 100,> 49.9,47.5,35.4,> 100,4.32,–,–
Cc1ncc([N+](=O)[O-])n1CCNC(=O)Cn1ccnc1[N+](=O)[O-],> 100,> 100,> 100,> 100,> 100,> 100,> 100,> 100,> 100,> 100,> 100,> 100,> 100,> 100,–,–
O=c1cc(-c2ccc3ccccc3c2)[nH]c2ncccc12,> 100,> 100,> 100,> 100,> 100,> 100,> 100,> 100,> 100,> 100,> 100,48.7,> 100,64.9,3.83,5.63
COc1ccc2c(c1)C1c3ccccc3CCN1CCC2 (centres undefined),68.2,> 100,> 100,> 100,> 100,> 100,> 100,84.7,> 100,> 100,70.8,> 100,> 100,> 100,–,–
O=C1OC(C2Cc3ccc4c(c3C2=O)CCCC4)c2ccccc21 (centres undefined),> 100,> 100,> 100,> 100,> 100,82,> 100,> 100,> 100,> 100,> 100,53.6,> 100,66.7,–,–
COC(=O)C1Cc2c([nH]c3ccccc23)-c2[nH]c3ccccc3c2CC(NC(C)=O)C(=O)NCC(=O)NCC(=O)N1 (centres undefined),> 100,> 100,> 100,> 100,> 100,> 100,> 100,> 100,> 100,> 100,> 100,> 100,> 100,> 100,–,–
CC1=NN(C(=O)CC(=O)Nc2ccc(Cl)cc2)C(=O)C1N=Nc1ccc(S(=O)(=O)c2ccc(N=NC3C(=O)N(C(=O)CC(=O)Nc4ccc(Cl)cc4)N=C3C)cc2)cc1 (centres undefined),> 100,> 100,> 100,> 100,> 100,> 100,> 100,> 100,> 100,> 100,> 100,> 100,> 100,> 100,–,–
COc1ccc(OC2OC(CO)C(O)C(O)C2O)cc1 (centres undefined),> 100,> 100,> 100,> 100,> 100,> 100,> 100,> 100,> 100,> 100,> 100,> 100,> 100,> 100,–,–
COc1cccc(N2C(=O)C3c4[nH]c5ccc(C)cc5c4C4CCC(C)CC4C3C2=O)c1 (centres undefined),> 100,> 100,> 100,> 100,> 100,64.9,> 100,> 100,> 100,> 100,> 100,> 100,> 100,> 100,–,–
O=C1CC2(CCNCC2)C(=O)N1N1CCCCC1,> 100,> 100,> 100,> 100,> 100,> 100,> 100,> 100,> 100,> 100,> 100,> 100,> 100,> 100,–,–
CCOC(=O)C(C)c1nc2cc(C(F)(F)F)ccc2[nH]c1=O (centres undefined),> 100,> 100,> 100,> 100,> 100,> 100,> 100,> 100,> 100,> 100,> 100,> 100,> 100,> 100,–,–
Oc1ccccc1-c1n[nH]c(-c2ccccc2O)n1,> 100,> 100,> 100,> 100,> 100,> 100,> 100,> 100,> 100,> 100,> 100,> 100,> 100,> 100,–,–
